Experimental data reported in patent US9200046B2, “Reporter system for high throughput screening of compounds and uses thereof” (priority 2011, dated 2015).
Where two headings read alike, the source gives them in different places.

Target: Nrf2-Keap1 complex (Homo sapiens, UniProt Q14145)
Test: cell-based
Type: cell-based
Conditions: for activation at 16 µM / activation at 32 µM: 3 h; for activation at 16 µM: read-out: Activation 100 nL; for activation at 32 µM: read-out: Activation 200 nL
[1] = Table 1A, 100 nL compound, screen run at 16 and 32 μM, 3 hr
[2] = Table 1A, 200 nL compound, screen run at 16 and 32 μM, 3 hr
[3] = Table 2, 100 nL compound, screen run at 16 and 32 μM, 3 hr
[4] = Table 2, 200 nL compound, screen run at 16 and 32 μM, 3 hr

Nrf2-Keap1 complex, sequence (Q14145 whole entry, one chain of several): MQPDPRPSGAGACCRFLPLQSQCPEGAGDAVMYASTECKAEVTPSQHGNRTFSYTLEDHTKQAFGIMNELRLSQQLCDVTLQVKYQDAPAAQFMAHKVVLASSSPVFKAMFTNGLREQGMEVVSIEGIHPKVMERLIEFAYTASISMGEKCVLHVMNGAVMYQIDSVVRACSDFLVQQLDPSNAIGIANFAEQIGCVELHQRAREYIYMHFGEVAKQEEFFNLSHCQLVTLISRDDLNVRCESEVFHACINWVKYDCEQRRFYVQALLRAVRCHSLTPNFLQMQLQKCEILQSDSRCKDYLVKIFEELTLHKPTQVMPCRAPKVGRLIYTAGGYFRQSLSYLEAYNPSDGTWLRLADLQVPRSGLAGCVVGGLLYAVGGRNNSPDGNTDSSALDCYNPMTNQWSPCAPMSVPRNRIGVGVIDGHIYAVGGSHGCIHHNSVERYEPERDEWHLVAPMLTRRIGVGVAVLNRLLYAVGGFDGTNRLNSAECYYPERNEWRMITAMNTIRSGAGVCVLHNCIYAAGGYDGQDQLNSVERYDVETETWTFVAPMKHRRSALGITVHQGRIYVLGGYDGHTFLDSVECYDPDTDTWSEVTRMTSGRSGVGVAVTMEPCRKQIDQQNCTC

Row | Molecule | activation at 16 µM [%] | activation at 32 µM [%] | 100 nL (luminescence) [3] | 200 nL (luminescence) [4] | Activation 100 nL [%] | Activation 200 nL [%] | further results
1 | CNc1ccccc1C(=O)N1CCc2c([nH]c3ccccc23)C1=O [RHETSININE] | 53 | 4 | – | – | – | – | 100 nL (luminescence) [1]: 1076; 200 nL (luminescence) [2]: 532
2 | COC1=CC(=O)C(C(=O)c2ccccc2)=CC1=O [2-BENZOYL-5-METHOXYBENZOQUINONE] | 72 | 83 | 994 | 2280 | – | – | –
3 | C[C@]12CCC(=O)C=C1CCc1ccc(O)cc12 [12-HYDROXY-4,4-BISNOR-4,8,11,13-PODOCARPATETRAEN-3-ONE] | – | – | 592 | 768 | 26 | 18 | –
4 | METHYL7-DESHYDROXYPYROGALLIN-4-CARBOXYLATE | – | – | 4444 | 3792 | 466 | 147 | –
5 | CCOc1ccc(C(=O)c2ccc(OC)c(O)c2O)cc1 [2,3-DIHYDROXY-4-METHOXY-4′-ETHOXYBENZOPHENONE] | 117 | 65 | 2142 | 1324 | – | – | –
6 | C=C(C)[C@@H]1CC=C(CO)CC1 [PERILLYLALCOHOL] | 31 | 27 | – | – | – | – | 100 nL (luminescence): 824; 200 nL (luminescence): 736
7 | COc1ccnc(C[S+]([O-])c2nc3cc(OC(F)F)ccc3[nH]2)c1OC (stereo not shown) [PANTOPRAZOLE, reference compound] | 25 | 60 | – | – | – | – | 100 nL (luminescence) [1]: 904; 200 nL (luminescence) [2]: 1504
8 | O=C1C=C2C=C[C@@H]3C[C@@]2(O1)[C@H]1CCCCN31 [SECURININE] | 84 | -14 | 2068 | 176 | – | – | –
9 | C[C@]12C=CC(=O)C=C1CC[C@@H]1[C@@H]2CC[C@]2(C)C(=O)CC[C@@H]12 [ANDROSTA-1,4-DIEN-3,17-DIONE] | 81 | 70 | 1444 | 2048 | – | – | –
10 | C=C1CC[C@@H]2[C@](C)(CO)[C@H](O)CC[C@@]2(C)[C@@H]1C/C=C1/C(=O)OC[C@H]1O [ANDROGRAPHOLIDE] | 78 | 11 | – | – | – | – | 100 nL (luminescence): 1404; 200 nL (luminescence): 708
11 | COc1cc([C@@H]2c3cc4c(cc3[C@@H](O)[C@H]3COC(=O)[C@H]23)OCO4)cc(OC)c1O [4′-DEMETHYLEPIPODOPHYLLOTOXIN] | – | – | – | – | – | – | 100 nL (luminescence) [1]: 3188; 200 nL (luminescence) [2]: 2844
12 | O=C(C=C(O)c1ccccc1)c1ccccc1O [2′,beta-DIHYDROXYCHALCONE] | – | – | 2064 | 44 | 112 | −18 | –
13 | CC(=O)O[C@@H]1C[C@H]2C(C)(C)[C@@H](O)CC[C@]2(C)[C@H]2CC[C@@]3(C)[C@H](c4ccoc4)OC(=O)[C@H]4O[C@]43[C@@]21C [beta-DIHYDROGEDUNOL] | – | – | 2270 | 3252 | 217 | 124 | Neh2-luc reporter activation: 220%
14 | COc1cc(/C=C/C(=O)CC(=O)/C=C/c2ccc(O)c(OC)c2)ccc1O [CURCUMIN] | 252 | -4 | 4208 | 264 | – | – | –
15 | O=c1c(-c2ccc(O)cc2)coc2cc(O)cc(O)c12 [GENISTEIN] | 106 | 93 | 1980 | 1748 | – | – | –
16 | CC(=O)N1CCN(c2ccc(OCC3CO[C@](Cn4ccnc4)(c4ccc(Cl)cc4Cl)O3)cc2)CC1 (stereo partly shown) [KETOCONAZOLE, reference compound] | – | – | – | – | 64 | 33 | 100 nL (luminescence): 1144; 200 nL (luminescence): 1026
17 | CCOC(=O)CCC(=O)O[C@H]1[C@H](O[C@@H]2[C@@H](C)[C@H](O[C@H]3C[C@@](C)(OC)[C@@H](O)[C@H](C)O3)[C@@H](C)C(=O)O[C@H](CC)[C@@](C)(O)[C@H](O)[C@@H](C)C(=O)[C@H](C)C[C@@]2(C)O)O[C@H](C)C[C@@H]1N(C)C [ERYTHROMYCINETHYLSUCCINATE, reference compound] | 41 | -20 | – | – | – | – | –
18 | CC(=O)O[C@@H]1CC2C(C)(C)[C@H](O)C=C[C@]2(C)C2CC[C@]3(C)C(=CC(=O)O[C@H]3c3ccoc3)[C@@]21C (stereo partly drawn) [3-alpha-HYDROXYDEOXYGEDININ] | – | – | 1196 | 1764 | 55 | 94 | –
19 | CC(C)c1cccc(=O)c(O)c1 [HINOKITIOL] | 29 | 1 | 860 | 372 | – | – | –
20 | AMSACRINEHYDROCHLORIDE [reference compound] | – | – | – | – | 345 | 40 | 100 nL (luminescence): 3384; 200 nL (luminescence): 1264
21 | C#C[C@]1(O)CC[C@H]2[C@@H]3CCC4=C(CCC(=O)C4)[C@H]3CC[C@@]21C [NORETHYNODREL, reference compound] | 128 | 171 | – | – | – | – | 100 nL (luminescence): 1948; 200 nL (luminescence): 3920
22 | O=c1c(O)cccc2cc(O)c(O)c(O)c12 [PURPUROGALLIN] | 156 | 112 | 3508 | 2420 | – | – | –
23 | CC1(C)C(=O)C=C[C@]2(C)[C@H]3CC[C@@]4(C)[C@H](c5ccoc5)OC(=O)[C@H]5O[C@]54[C@]3(C)C(=O)C[C@@H]12 [DEACETOXY-7-OXOGEDUNIN] | – | – | 1048 | 448 | 45 | 8 | –
24 | COc1ccc(-c2oc3cc(O[C@@H]4O[C@H](CO)[C@@H](O)[C@H](O)[C@H]4O)c(OC)c(O)c3c(=O)c2OC)cc1O [CENTAUREIN] | 41 | 19 | 916 | 876 | – | – | –
25 | CC(=O)O[C@H]1C[C@@H](OC(C)=O)C(C)(C)[C@@H]2CC(=O)[C@]3(C)[C@H](CC[C@@]4(C)[C@H](c5ccoc5)OC(=O)[C@H]5O[C@]543)[C@@]12C [7-DEACETOXY-7-OXOKHIVORIN] | – | – | 2924 | 2284 | 168 | 128 | –
26 | COc1cc([C@@H]2c3cc4c(cc3[C@@H](O[C@@H]3O[C@@H]5CO[C@@H](C)O[C@H]5[C@H](O)[C@H]3O)[C@H]3COC(=O)[C@H]23)OCO4)cc(OC)c1O [ETOPOSIDE, reference compound] | 40 | 89 | 1180 | 1484 | – | – | –
27 | O=c1c(O)c(-c2ccccc2)oc2ccccc12 [3-Hydroxyflavone] | – | – | – | – | – | – | hit strength in the screen (words): modest Nrf2 activator
28 | COc1ccc2c(c1)OCC(Cc1ccc(OC(C)=O)c(OC)c1)C2=O (stereo not shown) | – | – | 3740 | 1388 | 221 | 70 | –
29 | Cc1cc(O)ccc1Cl [CHLOROCRESOL] | 25 | -5 | – | – | – | – | –
30 | O=C1C[C@@H](c2ccc(O)c(O)c2)Oc2cc(O)cc(O)c21 [ERIODYCTOL] | – | – | 1028 | 768 | 76 | 18 | –
